In the NIST ThermoML archive (doi:10.1021/je050366x):
“And” between values parts separate entries of the source, which are not always exact repeats. Identical values can stand only once. Numbers after ± are expanded uncertainties.

Test: xn = mol fraction of the nth substance listed
Settings: for mass density: 100 kPa, Liquid

O=C(O)CCC(=O)O [butanedioic acid] + O
Ring tensiometer
Settings	surface tension liquid-gas
279.9 K, x1 = 0.00716	70 mN/m
280.1 K, x1 = 0.00716	69.2 mN/m
280.2 K, x1 = 0.00716	70.3 mN/m
280.6 K, x1 = 0.00716	70 mN/m
284 K, x1 = 0.00716	69 mN/m
284.3 K, x1 = 0.00716	69.7 mN/m
284.7 K, x1 = 0.00716	69.3 mN/m
284.8 K, x1 = 0.00716	69.5 mN/m
285 K, x1 = 0.00716	69.6 mN/m
288.4 K, x1 = 0.00716	68.6 mN/m
288.9 K, x1 = 0.00716	69 mN/m and 68.8 mN/m and 68.7 mN/m
292.6 K, x1 = 0.00716	67.8 mN/m
293.1 K, x1 = 0.00716	68.5 mN/m
293.3 K, x1 = 0.00716	68.2 mN/m
293.4 K, x1 = 0.00716	68.2 mN/m
293.6 K, x1 = 0.00716	68.4 mN/m
296.8 K, x1 = 0.00716	67.2 mN/m
297.4 K, x1 = 0.00716	67.7 mN/m
297.6 K, x1 = 0.00716	68 mN/m
297.8 K, x1 = 0.00716	67.8 mN/m
297.9 K, x1 = 0.00716	67.8 mN/m
298 K, x1 = 0.0011	70.9 ± 1.2 mN/m
298 K, x1 = 0.0022	70 ± 1.2 mN/m
298 K, x1 = 0.0028	69.8 ± 1.1 mN/m
298 K, x1 = 0.0033	69.4 ± 1.1 mN/m
298 K, x1 = 0.0045	68.9 ± 1.1 mN/m
298 K, x1 = 0.0056	68.5 ± 1.1 mN/m
298 K, x1 = 0.0067	68.1 ± 1.1 mN/m
298 K, x1 = 0.0071	67.7 ± 1.1 mN/m
298 K, x1 = 0.0078	67.6 ± 1.1 mN/m
298 K, x1 = 0.0089	67.3 ± 1.1 mN/m
298 K, x1 = 0.01	66.6 ± 1.1 mN/m
298 K, x1 = 0.0107	66.9 ± 1.1 mN/m
298 K, x1 = 0.0111	66.4 ± 1.1 mN/m
298 K, x1 = 0.0117	66.7 ± 1.1 mN/m
301.7 K, x1 = 0.00716	67.5 mN/m
301.8 K, x1 = 0.00716	67.1 mN/m
302.3 K, x1 = 0.00716	67.3 mN/m
302.9 K, x1 = 0.00716	67.1 mN/m

298 K
Settings	mass density
x1 = 0.0011	991 ± 2 kg/m3
x1 = 0.0012	997 ± 2 kg/m3
x1 = 0.0022	993 ± 2 kg/m3 and 1003 ± 2 kg/m3
x1 = 0.0028	996 ± 2 kg/m3
x1 = 0.0033	997 ± 2 kg/m3
x1 = 0.0037	1001 ± 2 kg/m3
x1 = 0.0045	998 ± 2 kg/m3
x1 = 0.0047	1002 ± 2 kg/m3
x1 = 0.0056	1001 ± 2 kg/m3
x1 = 0.0067	1002 ± 2 kg/m3
x1 = 0.0068	1008 ± 2 kg/m3
x1 = 0.0078	1005 ± 2 kg/m3
x1 = 0.0089	1007 ± 2 kg/m3
x1 = 0.01	1009 ± 2 kg/m3
x1 = 0.011	1010 ± 2 kg/m3

CC(=O)[C@H]1C[C@@H](CC(=O)O)C1(C)C [cis-pinonic acid] + O
Settings	mass density [kg/m3]	surface tension liquid-gas [mN/m]
280.7 K, Ring tensiometer, x1 = 0.00035	–	61.7 ± 1
282.5 K, Ring tensiometer, x1 = 0.00035	–	61.6 ± 1
283.6 K, Ring tensiometer, x1 = 0.00035	–	61.6 ± 1
283.8 K, Ring tensiometer, x1 = 0.00035	–	61.4 ± 1
284.4 K, Ring tensiometer, x1 = 0.00035	–	61.3 ± 1
285.4 K, Ring tensiometer, x1 = 0.00035	–	61.5 ± 1
287.5 K, Ring tensiometer, x1 = 0.00035	–	61.1 ± 1
288 K, Ring tensiometer, x1 = 0.00035	–	60.8 ± 1
288.8 K, Ring tensiometer, x1 = 0.00035	–	60.8 ± 1
289.1 K, Ring tensiometer, x1 = 0.00035	–	60.9 ± 1
291.9 K, Ring tensiometer, x1 = 0.00035	–	60.4 ± 1
292.5 K, Ring tensiometer, x1 = 0.00035	–	60.7 ± 1
292.9 K, Ring tensiometer, x1 = 0.00035	–	60.5 ± 1
293.9 K, Ring tensiometer, x1 = 0.00035	–	60.2 ± 1
296.8 K, Ring tensiometer, x1 = 0.00035	–	60.1 ± 1
297.1 K, Ring tensiometer, x1 = 0.00035	–	60.2 ± 1
298 K, Pycnometric method, x1 = 0.00018	995 ± 1	–
298 K, Pycnometric method, x1 = 0.00025	993 ± 1	–
298 K, Pycnometric method, x1 = 0.00033	995 ± 1	–
298 K, Pycnometric method, x1 = 0.00041	997 ± 1	–
298 K, Pycnometric method, x1 = 0.0005	996 ± 1	–
298 K, Pycnometric method, x1 = 0.00058	994 ± 1	–
298 K, Pycnometric method, x1 = 0.00066	994 ± 1	–
298 K, Pycnometric method, x1 = 0.00083	997 ± 1	–
298.1 K, Ring tensiometer, x1 = 0.00035	–	59.7 ± 1
301.2 K, Ring tensiometer, x1 = 0.00035	–	59.4 ± 1
301.7 K, Ring tensiometer, x1 = 0.00035	–	59.9 ± 1
302.1 K, Ring tensiometer, x1 = 0.00035	–	59.1 ± 1

298 K
Settings	surface tension liquid-gas [mN/m]
x1 = 2e-05	69.5 ± 2.3
x1 = 4e-05	66.8 ± 2.2
x1 = 0.00011	64.4 ± 2.1
x1 = 0.00018	61.4 ± 2
x1 = 0.00024	61.2 ± 2
x1 = 0.00034	59 ± 2
x1 = 0.00041	57.2 ± 1.9
x1 = 0.0005	56.3 ± 1.9
x1 = 0.00058	55.8 ± 1.9
x1 = 0.00065	56.2 ± 1.9
x1 = 0.00083	53.9 ± 1.8

O=C(O)CC(=O)O [propanedioic acid] + O
Settings	mass density, Pycnometric method [kg/m3]	surface tension liquid-gas, Ring tensiometer [mN/m]
278.1 K, x1 = 0.06	–	66.5 ± 1.1
279.3 K, x1 = 0.06	–	66 ± 1.1
279.7 K, x1 = 0.06	–	65.9 ± 1.1
282.6 K, x1 = 0.06	–	66 ± 1.1
285 K, x1 = 0.06	–	65.7 ± 1.1
286.5 K, x1 = 0.06	–	65.6 ± 1.1
287.8 K, x1 = 0.06	–	65.4 ± 1.1
288.7 K, x1 = 0.06	–	65.2 ± 1.1
289.6 K, x1 = 0.06	–	65.3 ± 1.1
290.9 K, x1 = 0.06	–	64.6 ± 1.1
291.1 K, x1 = 0.06	–	65 ± 1.1
293 K, x1 = 0.06	–	64.6 ± 1.1
295.3 K, x1 = 0.06	–	64.7 ± 1.1
296.7 K, x1 = 0.06	–	64.1 ± 1.1
297.1 K, x1 = 0.06	–	64.1 ± 1.1
298 K, x1 = 0.009	1016 ± 1	–
298 K, x1 = 0.01	–	69.2 ± 1.1
298 K, x1 = 0.017	–	68.5 ± 1.1
298 K, x1 = 0.025	–	66.7 ± 1.1
298 K, x1 = 0.03	1054 ± 1	–
298 K, x1 = 0.033	–	66.7 ± 1.1
298 K, x1 = 0.04	–	65.6 ± 1.1
298 K, x1 = 0.041	1068 ± 1	–
298 K, x1 = 0.05	–	65.6 ± 1.1
298 K, x1 = 0.055	1090 ± 1	65.5 ± 1.1
298 K, x1 = 0.065	–	65 ± 1.1
298 K, x1 = 0.069	1108 ± 1	–
298 K, x1 = 0.07	–	64.2 ± 1.1
298 K, x1 = 0.08	–	63.5 ± 1.1
298 K, x1 = 0.085	1129 ± 1	–
298 K, x1 = 0.088	–	64.2 ± 1.1
298 K, x1 = 0.094	–	63.5 ± 1.1
298 K, x1 = 0.102	1152 ± 1	–
298 K, x1 = 0.107	–	62.7 ± 1
298 K, x1 = 0.122	–	62.3 ± 1
298 K, x1 = 0.137	–	62.2 ± 1
298 K, x1 = 0.147	1196 ± 1	–
298 K, x1 = 0.149	–	62.6 ± 1
298 K, x1 = 0.158	–	62.2 ± 1
298.2 K, x1 = 0.06	–	63.8 ± 1.1
299 K, x1 = 0.06	–	63.6 ± 1.1
299.1 K, x1 = 0.06	–	63.9 ± 1.1
301.2 K, x1 = 0.06	–	64 ± 1.1
303.3 K, x1 = 0.06	–	63 ± 1.1
